Test results published in PubChem BioAssay AID2060494 (Molecular Pharmacology Branch, DTP, NCI, 2025).
Values belong to the molecule of their own block, whether it stands above or below them.

Tested on: 435261-313-R-J1-PDC complex spheroid viability
Assay: Anticancer human tumor 435261-313-R-J1-PDC patient-derived colon adenocarcinoma cell line growth inhibition [GQUAD]
Details: for IC50: curve of first compound; for viability, T/C: stronger effect = lower value
Outline: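 Viability of tumor cells grown as complex spheroids with endothelial and stromal cells, exposed to drug combinations. Top concentration at or near clinical Cmax (else 10 microM), diluted in half-log increments.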

[1] = second compound 0.0316 µM, first compound 0.0316 µM
[2] = second compound 0.0316 µM, first compound 0.1 µM
[3] = second compound 0.0316 µM, first compound 0.316 µM
[4] = second compound 0.0316 µM, first compound 1 µM
[5] = second compound 0.0316 µM, first compound 3.16 µM
[6] = second compound 0.0316 µM, first compound 10 µM
[7] = second compound 0.1 µM, first compound 0.0316 µM
[8] = second compound 0.1 µM, first compound 0.1 µM
[9] = second compound 0.1 µM, first compound 0.316 µM
[10] = second compound 0.1 µM, first compound 1 µM
[11] = second compound 0.1 µM, first compound 3.16 µM
[12] = second compound 0.1 µM, first compound 10 µM
[13] = second compound 0.316 µM, first compound 0.0316 µM
[14] = second compound 0.316 µM, first compound 0.1 µM
[15] = second compound 0.316 µM, first compound 0.316 µM
[16] = second compound 0.316 µM, first compound 1 µM
[17] = second compound 0.316 µM, first compound 3.16 µM
[18] = second compound 0.316 µM, first compound 10 µM
[19] = second compound 1 µM, first compound 0.0316 µM
[20] = second compound 1 µM, first compound 0.1 µM
[21] = second compound 1 µM, first compound 0.316 µM
[22] = second compound 1 µM, first compound 1 µM
[23] = second compound 1 µM, first compound 3.16 µM
[24] = second compound 1 µM, first compound 10 µM
[25] = second compound 3.16 µM, first compound 0.0316 µM
[26] = second compound 3.16 µM, first compound 0.1 µM
[27] = second compound 3.16 µM, first compound 0.316 µM
[28] = second compound 3.16 µM, first compound 1 µM
[29] = second compound 3.16 µM, first compound 3.16 µM
[30] = second compound 3.16 µM, first compound 10 µM
[31] = second compound 10 µM, first compound 0.0316 µM
[32] = second compound 10 µM, first compound 0.1 µM
[33] = second compound 10 µM, first compound 0.316 µM
[34] = second compound 10 µM, first compound 1 µM
[35] = second compound 10 µM, first compound 3.16 µM
[36] = second compound 10 µM, first compound 10 µM
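Also: spheroids exposed to the agents for seven days before readout.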
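For viability, T/C in this document: percent of vehicle control viability with DMSO wells as 100%.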

SMILES: C#Cc1c(F)ccc2cc(O)cc(-c3ncc4c(N5CC6CCC(C5)N6)nc(OCC56CCCN5CC(F)C6)nc4c3F)c12 (stereo unspecified) + Cc1[nH]c2ccc(F)cc2c1-c1nc2c3cccnc3c3ncccc3c2[nH]1
IC50 (second compound 0.0316 µM): > 10 µM
IC50 (second compound 0.1 µM): > 10 µM
IC50 (second compound 0.316 µM): > 10 µM
IC50 (second compound 1 µM): > 10 µM
IC50 (second compound 3.16 µM): < 0.0316 µM
IC50 (second compound 10 µM): < 0.0316 µM
viability, T/C [1]: 94.8%
viability, T/C [2]: 106%
viability, T/C [3]: 88.9%
viability, T/C [4]: 104%
viability, T/C [5]: 65.6%
viability, T/C [6]: 58.9%
viability, T/C [7]: 107%
viability, T/C [8]: 85.4%
viability, T/C [9]: 104%
viability, T/C [10]: 62%
viability, T/C [11]: 61.1%
viability, T/C [12]: 57%
viability, T/C [13]: 64.5%
viability, T/C [14]: 111%
viability, T/C [15]: 75.8%
viability, T/C [16]: 75.4%
viability, T/C [17]: 84.7%
viability, T/C [18]: 74.4%
viability, T/C [19]: 61.8%
viability, T/C [20]: 55.1%
viability, T/C [21]: 85.6%
viability, T/C [22]: 66.9%
viability, T/C [23]: 63.5%
viability, T/C [24]: 46.3%
viability, T/C [25]: 51.2%
viability, T/C [26]: 42.9%
viability, T/C [27]: 39.6%
viability, T/C [28]: 28.4%
viability, T/C [29]: 45%
viability, T/C [30]: 0.2%
viability, T/C [31]: 24.2%
viability, T/C [32]: 28.3%
viability, T/C [33]: 28.4%
viability, T/C [34]: 37.1%
viability, T/C [35]: 29%
viability, T/C [36]: 0.26%

IC50 (second compound 0.0316 µM): > 0.316 µM
IC50 (second compound 0.1 µM): > 0.316 µM
IC50 (second compound 0.316 µM): 0.113 µM
IC50 (second compound 1 µM): < 0.000999 µM
IC50 (second compound 3.16 µM): < 0.000999 µM
IC50 (second compound 10 µM): < 0.000999 µM
SMILES: CC[C@@]1(O)C(=O)OCc2c1cc1n(c2=O)Cc2cc3c(CN(C)C)c(O)ccc3nc2-1 + Cc1cnc(CNC(=O)c2c(=O)c3ccc(N4CCCN(C)CC4)nc3n3c2sc2ccccc23)cn1
viability, T/C (second compound 0.0316 µM, first compound 0.000999 µM): 66.6%
viability, T/C (second compound 0.0316 µM, first compound 0.00316 µM): 63%
viability, T/C (second compound 0.0316 µM, first compound 0.00999 µM): 73%
viability, T/C [1]: 53%
viability, T/C (second compound 0.0316 µM, first compound 0.0999 µM): 60.6%
viability, T/C [3]: 72.1%
viability, T/C (second compound 0.1 µM, first compound 0.000999 µM): 57.3%
viability, T/C (second compound 0.1 µM, first compound 0.00316 µM): 69%
viability, T/C (second compound 0.1 µM, first compound 0.00999 µM): 58.7%
viability, T/C [7]: 50.9%
viability, T/C (second compound 0.1 µM, first compound 0.0999 µM): 63.2%
viability, T/C [9]: 53.4%
viability, T/C (second compound 0.316 µM, first compound 0.000999 µM): 53.1%
viability, T/C (second compound 0.316 µM, first compound 0.00316 µM): 59.2%
viability, T/C (second compound 0.316 µM, first compound 0.00999 µM): 50.5%
viability, T/C [13]: 55.8%
viability, T/C (second compound 0.316 µM, first compound 0.0999 µM): 46.2%
viability, T/C [15]: 49.3%
viability, T/C (second compound 1 µM, first compound 0.000999 µM): 31.9%
viability, T/C (second compound 1 µM, first compound 0.00316 µM): 48.8%
viability, T/C (second compound 1 µM, first compound 0.00999 µM): 35.2%
viability, T/C [19]: 43.4%
viability, T/C (second compound 1 µM, first compound 0.0999 µM): 47.6%
viability, T/C [21]: 34.1%
viability, T/C (second compound 3.16 µM, first compound 0.000999 µM): 16.9%
viability, T/C (second compound 3.16 µM, first compound 0.00316 µM): 20.2%
viability, T/C (second compound 3.16 µM, first compound 0.00999 µM): 21.8%
viability, T/C [25]: 16%
viability, T/C (second compound 3.16 µM, first compound 0.0999 µM): 12.1%
viability, T/C [27]: 8.56%
viability, T/C (second compound 10 µM, first compound 0.000999 µM): 0.19%
viability, T/C (second compound 10 µM, first compound 0.00316 µM): 0.19%
viability, T/C (second compound 10 µM, first compound 0.00999 µM): 0.22%
viability, T/C [31]: 0.23%
viability, T/C (second compound 10 µM, first compound 0.0999 µM): 0.23%
viability, T/C [33]: 0.22%

IC50 (second compound 0.0316 µM): > 10 µM
IC50 (second compound 0.1 µM): > 10 µM
IC50 (second compound 0.316 µM): > 10 µM
IC50 (second compound 1 µM): < 0.0316 µM
IC50 (second compound 3.16 µM): < 0.0316 µM
IC50 (second compound 10 µM): < 0.0316 µM
SMILES: Cc1cccc(N(C)C(=O)C2C(O)CCN2c2nc(C)cc(C(F)(F)F)c2C#N)c1 (stereo unspecified) + Cc1cnc(CNC(=O)c2c(=O)c3ccc(N4CCCN(C)CC4)nc3n3c2sc2ccccc23)cn1
viability, T/C [1]: 72.9%
viability, T/C [2]: 76.9%
viability, T/C [3]: 73.3%
viability, T/C [4]: 63.7%
viability, T/C [5]: 75.8%
viability, T/C [6]: 81.6%
viability, T/C [7]: 59.2%
viability, T/C [8]: 66%
viability, T/C [9]: 52.2%
viability, T/C [10]: 56.3%
viability, T/C [11]: 61.5%
viability, T/C [12]: 62.3%
viability, T/C [13]: 49.1%
viability, T/C [14]: 52.5%
viability, T/C [15]: 65.3%
viability, T/C [16]: 51.7%
viability, T/C [17]: 51.1%
viability, T/C [18]: 53%
viability, T/C [19]: 42%
viability, T/C [20]: 53%
viability, T/C [21]: 47.9%
viability, T/C [22]: 51.6%
viability, T/C [23]: 48.6%
viability, T/C [24]: 45.3%
viability, T/C [25]: 16.1%
viability, T/C [26]: 21%
viability, T/C [27]: 17%
viability, T/C [28]: 17.3%
viability, T/C [29]: 12.8%
viability, T/C [30]: 9.97%
viability, T/C [31]: 0.21%
viability, T/C [32]: 5.23%
viability, T/C [33]: 6.24%
viability, T/C [34]: 0.26%
viability, T/C [35]: 0.33%
viability, T/C [36]: 0.25%
